Test results reported in PMC3295836 (Bioorganic & medicinal chemistry letters, 2012).
“And” between values parts separate entries of the source, which are not always exact repeats. Identical values can stand only once.

How the values were obtained:
[1] = tested on: anthrax lethal toxin (LT; PA + LF); design: species or system Fischer 344 rats; conditions: rat, in vivo
[2] = biological target: anthrax lethal factor (LF) (Bacillus anthracis, UniProt P15917); format: biochemical
[3] = t = 30 min
in vivo = conditions: NZW, rabbit, sc, 10 mg/kg

Sequence of anthrax lethal factor (LF) (P15917 34-809 limits assumed): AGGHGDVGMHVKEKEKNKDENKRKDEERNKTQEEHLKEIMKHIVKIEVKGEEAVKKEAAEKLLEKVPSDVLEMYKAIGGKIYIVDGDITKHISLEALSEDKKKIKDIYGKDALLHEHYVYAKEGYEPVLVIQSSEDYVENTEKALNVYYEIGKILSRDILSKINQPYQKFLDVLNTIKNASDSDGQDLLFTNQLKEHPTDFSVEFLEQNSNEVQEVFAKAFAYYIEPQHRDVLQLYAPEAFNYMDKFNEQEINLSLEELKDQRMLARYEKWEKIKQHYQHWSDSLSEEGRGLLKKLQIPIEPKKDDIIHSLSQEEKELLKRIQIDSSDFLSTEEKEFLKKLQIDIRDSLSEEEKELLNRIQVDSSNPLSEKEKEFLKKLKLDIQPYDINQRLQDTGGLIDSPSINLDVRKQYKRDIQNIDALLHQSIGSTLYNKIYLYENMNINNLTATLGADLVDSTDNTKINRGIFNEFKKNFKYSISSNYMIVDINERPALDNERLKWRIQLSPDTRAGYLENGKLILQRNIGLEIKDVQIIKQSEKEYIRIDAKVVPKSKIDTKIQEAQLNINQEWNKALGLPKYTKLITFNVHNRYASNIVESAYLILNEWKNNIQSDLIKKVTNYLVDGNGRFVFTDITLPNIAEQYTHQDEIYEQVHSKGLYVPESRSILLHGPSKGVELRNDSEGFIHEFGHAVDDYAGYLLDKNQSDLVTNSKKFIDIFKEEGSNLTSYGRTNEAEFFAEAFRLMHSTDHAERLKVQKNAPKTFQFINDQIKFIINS

| Compound | rMST = MST(LFI)/MST(controls) [1] | surv (number of survivors per group) [1] | other results |
| --- | --- | --- | --- |
| Cc1cc(N[C@H](CCCCNCc2ccc(F)cc2)C(=O)NO)cc(C)c1F [LFI 1] | 16.8 | 3/5 and 3/3 | – |
| Cc1cc(C[C@H](CCCCNCc2ccc(F)cc2)C(=O)NO)cc(C)c1F [LFI 2] | 19.3 | 1/3 and 3/3 | – |
| Cc1cc(O[C@H](CCCCNCc2ccc(F)cc2)C(=O)NO)cc(C)c1F [LFI 3] | 16.0 | 0/3 | – |
| CO[C@H](C[C@H](CCCCNCc1ccc(F)cc1)C(=O)NO)c1ccc(F)cc1 [LFI 4] | – | one animal was lost | – |
| CC[C@@H](NCCCC[C@@H](Cc1cc(C)c(F)c(C)c1)C(=O)NO)c1ccc(F)cc1 [LFI 11] | – | – | difference in potency against LF between analogs [2]: 50 fold |
| Cc1cc(C[C@H](CCCCN[C@H](Cc2ccccc2)c2ccc(F)cc2)C(=O)NO)cc(C)c1F [LFI 15] | – | – | LF (FRET) KinM) [2]: sub-nanomolar |
| CCC(NCCCC[C@@H](Cc1cc(C)c(F)c(C)c1)C(=O)NO)c1ccc(F)cc1 (stereo partly shown) [LFI 18] | – | protect all of the animals and 3/3 and 5/6 | – |
| CCC(NCCCC[C@@H](Oc1cc(C)c(F)c(C)c1)C(=O)NO)c1ccc(F)cc1 (stereo partly shown) [LFI 19] | – | 1/3 | M = microsome stability, percent of compound remaining [3]: < 10% |
| CCC(NCCCC[C@@H](C[C@@H](OC)c1ccc(F)cc1)C(=O)NO)c1ccc(F)cc1 (stereo partly shown) [LFI 20] | – | – | Cmax (in vivo): 561 ng/mL |
